ChEMBL document CHEMBL2417377, “Hit-to-lead optimization and kinase selectivity of imidazo[1,2-a]quinoxalin-4-amine derived JNK1 inhibitors” (Bioorg Med Chem Lett, 2013)

Experiments:
PC-3 = experiment: Inhibition of KHS1 in human PC3 cell lysates at 10 uM using desthiobiotin-tagged ATP probe AX9989 followed by trypsinization by LC/MS analysis; assay type: cell-free
[1] = target: T1, Serine/threonine-protein kinase Nek9 (Homo sapiens) (UniProt Q8TD19); experiment: Inhibition of NEK9 in human PC3 cell lysates at 10 uM using desthiobiotin-tagged ATP probe AX9989 followed by trypsinization by LC/MS analysis; conditions: PC-3
T1 sequence (whole entry): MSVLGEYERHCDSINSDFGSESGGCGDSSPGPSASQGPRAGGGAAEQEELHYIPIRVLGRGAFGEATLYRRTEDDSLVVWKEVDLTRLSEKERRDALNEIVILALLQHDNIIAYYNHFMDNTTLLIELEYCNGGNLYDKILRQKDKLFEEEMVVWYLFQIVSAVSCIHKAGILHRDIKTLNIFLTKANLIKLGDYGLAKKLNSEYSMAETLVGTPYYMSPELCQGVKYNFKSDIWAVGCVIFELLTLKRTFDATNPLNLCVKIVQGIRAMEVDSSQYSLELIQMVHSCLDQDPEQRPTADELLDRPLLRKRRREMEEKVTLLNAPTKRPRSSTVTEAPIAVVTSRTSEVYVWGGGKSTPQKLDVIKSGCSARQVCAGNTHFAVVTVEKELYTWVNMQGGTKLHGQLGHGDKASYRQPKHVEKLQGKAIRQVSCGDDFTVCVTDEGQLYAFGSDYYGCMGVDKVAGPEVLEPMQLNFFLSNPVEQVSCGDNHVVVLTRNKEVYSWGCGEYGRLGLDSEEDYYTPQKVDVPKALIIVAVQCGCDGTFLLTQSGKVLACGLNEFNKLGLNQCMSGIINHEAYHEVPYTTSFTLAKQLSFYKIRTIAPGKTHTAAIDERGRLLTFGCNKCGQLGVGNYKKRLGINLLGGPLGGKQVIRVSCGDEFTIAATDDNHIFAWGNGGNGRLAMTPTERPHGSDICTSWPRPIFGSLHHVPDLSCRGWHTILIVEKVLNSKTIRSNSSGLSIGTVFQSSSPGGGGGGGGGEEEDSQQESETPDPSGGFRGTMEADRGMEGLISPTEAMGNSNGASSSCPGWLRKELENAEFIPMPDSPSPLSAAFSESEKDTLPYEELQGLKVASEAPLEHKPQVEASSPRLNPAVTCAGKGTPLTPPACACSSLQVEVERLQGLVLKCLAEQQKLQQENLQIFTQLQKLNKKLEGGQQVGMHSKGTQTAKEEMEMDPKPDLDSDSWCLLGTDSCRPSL

[2] = target: Dual specificity mitogen-activated protein kinase kinase 1 (Homo sapiens) (UniProt Q02750); experiment: Inhibition of MAP2K1 in human PC3 cell lysates at 10 uM using desthiobiotin-tagged ATP probe AX9989 followed by trypsinization by LC/MS analysis; conditions: PC-3
[3] = target: SRSF protein kinase 1 (Homo sapiens) (UniProt Q96SB4); experiment: Inhibition of SRPK1 in human PC3 cell lysates at 10 uM using desthiobiotin-tagged ATP probe AX9989 followed by trypsinization by LC/MS analysis; conditions: PC-3
[4] = target: T2, Mitogen-activated protein kinase kinase kinase 2 (Homo sapiens) (UniProt Q9Y2U5); experiment: Inhibition of MAP3K2 in human PC3 cell lysates at 10 uM using desthiobiotin-tagged ATP probe AX9989 followed by trypsinization by LC/MS analysis; conditions: PC-3
T2 sequence (whole entry): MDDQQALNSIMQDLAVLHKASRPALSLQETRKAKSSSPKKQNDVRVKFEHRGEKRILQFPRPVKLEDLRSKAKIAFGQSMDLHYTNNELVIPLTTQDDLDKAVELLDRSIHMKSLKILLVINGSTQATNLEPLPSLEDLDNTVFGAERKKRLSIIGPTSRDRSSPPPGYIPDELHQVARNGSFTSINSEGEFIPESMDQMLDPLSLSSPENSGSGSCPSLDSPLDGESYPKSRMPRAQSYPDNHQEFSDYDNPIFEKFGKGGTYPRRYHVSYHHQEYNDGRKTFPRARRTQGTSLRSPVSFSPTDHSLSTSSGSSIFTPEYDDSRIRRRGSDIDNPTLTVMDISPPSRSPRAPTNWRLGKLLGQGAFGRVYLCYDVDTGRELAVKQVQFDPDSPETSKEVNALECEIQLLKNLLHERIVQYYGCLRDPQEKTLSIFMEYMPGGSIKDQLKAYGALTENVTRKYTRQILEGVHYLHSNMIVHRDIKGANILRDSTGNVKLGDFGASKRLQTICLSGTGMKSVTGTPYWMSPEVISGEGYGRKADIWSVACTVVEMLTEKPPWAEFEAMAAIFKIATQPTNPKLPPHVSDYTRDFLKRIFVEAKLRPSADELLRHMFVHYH

[5] = target: Glycogen synthase kinase-3 beta (Homo sapiens) (UniProt P49841); experiment: Inhibition of GSK3beta in human PC3 cell lysates at 10 uM using desthiobiotin-tagged ATP probe AX9989 followed by trypsinization by LC/MS analysis; conditions: PC-3
[6] = target: Serine/threonine-protein kinase MRCK beta (Homo sapiens) (UniProt Q9Y5S2); experiment: Inhibition of MRCKbeta in human PC3 cell lysates at 10 uM using desthiobiotin-tagged ATP probe AX9989 followed by trypsinization by LC/MS analysis; conditions: PC-3
[7] = target: IKK epsilon/TBK1 (Homo sapiens) (UniProt Q14164+Q9UHD2); experiment: Inhibition of IKKepsilon/TBK1 in human PC3 cell lysates at 10 uM using desthiobiotin-tagged ATP probe AX9989 followed by trypsinization by LC/MS analysis; assay type: protein-complex assay; conditions: PC-3
[8] = target: Serine/threonine-protein kinase 10 (Homo sapiens) (UniProt O94804); experiment: Inhibition of LOK in human PC3 cell lysates at 10 uM using desthiobiotin-tagged ATP probe AX9989 followed by trypsinization by LC/MS analysis; conditions: PC-3
[9] = target: Serine/threonine-protein kinase 16 (Homo sapiens) (UniProt O75716); experiment: Inhibition of MPSK1 in human PC3 cell lysates at 10 uM using desthiobiotin-tagged ATP probe AX9989 followed by trypsinization by LC/MS analysis; conditions: PC-3
[10] = target: Mitogen-activated protein kinase 1 (Homo sapiens) (UniProt P28482); experiment: Inhibition of Erk2 in human PC3 cell lysates at 10 uM using desthiobiotin-tagged ATP probe AX9989 followed by trypsinization by LC/MS analysis; conditions: PC-3
Mitogen-activated protein kinase 1 (Homo sapiens), sequence (P28482 whole entry): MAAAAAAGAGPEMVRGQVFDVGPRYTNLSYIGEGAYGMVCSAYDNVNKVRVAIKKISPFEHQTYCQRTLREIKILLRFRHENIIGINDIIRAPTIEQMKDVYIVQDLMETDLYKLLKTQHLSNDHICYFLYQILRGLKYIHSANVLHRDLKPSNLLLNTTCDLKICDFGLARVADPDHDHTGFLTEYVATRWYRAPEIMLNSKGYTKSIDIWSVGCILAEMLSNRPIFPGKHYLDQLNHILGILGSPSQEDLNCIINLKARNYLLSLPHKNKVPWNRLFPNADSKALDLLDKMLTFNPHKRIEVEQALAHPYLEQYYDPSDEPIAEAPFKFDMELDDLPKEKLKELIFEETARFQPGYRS

Serine/threonine-protein kinase 16 (Homo sapiens), sequence (O75716 whole entry): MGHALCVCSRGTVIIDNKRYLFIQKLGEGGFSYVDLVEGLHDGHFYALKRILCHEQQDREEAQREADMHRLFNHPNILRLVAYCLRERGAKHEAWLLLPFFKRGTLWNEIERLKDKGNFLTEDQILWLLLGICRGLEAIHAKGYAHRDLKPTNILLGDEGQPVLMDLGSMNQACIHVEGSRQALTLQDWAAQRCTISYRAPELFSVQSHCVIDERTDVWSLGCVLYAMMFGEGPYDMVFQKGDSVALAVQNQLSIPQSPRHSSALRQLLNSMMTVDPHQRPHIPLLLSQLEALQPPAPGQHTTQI
Glycogen synthase kinase-3 beta (Homo sapiens), sequence (P49841 whole entry, looked up): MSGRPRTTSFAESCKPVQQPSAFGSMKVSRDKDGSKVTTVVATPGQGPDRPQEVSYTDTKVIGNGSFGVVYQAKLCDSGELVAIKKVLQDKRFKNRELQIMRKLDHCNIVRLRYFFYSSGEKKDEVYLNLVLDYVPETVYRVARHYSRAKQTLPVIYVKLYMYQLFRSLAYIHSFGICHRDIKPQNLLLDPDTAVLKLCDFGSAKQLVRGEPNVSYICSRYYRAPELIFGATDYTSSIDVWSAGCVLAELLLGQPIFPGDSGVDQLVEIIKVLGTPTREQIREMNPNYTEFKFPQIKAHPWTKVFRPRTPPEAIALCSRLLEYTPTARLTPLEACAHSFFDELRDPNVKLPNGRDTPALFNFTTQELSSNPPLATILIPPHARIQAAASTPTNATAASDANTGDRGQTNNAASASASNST
SRSF protein kinase 1 (Homo sapiens), sequence (Q96SB4 whole entry): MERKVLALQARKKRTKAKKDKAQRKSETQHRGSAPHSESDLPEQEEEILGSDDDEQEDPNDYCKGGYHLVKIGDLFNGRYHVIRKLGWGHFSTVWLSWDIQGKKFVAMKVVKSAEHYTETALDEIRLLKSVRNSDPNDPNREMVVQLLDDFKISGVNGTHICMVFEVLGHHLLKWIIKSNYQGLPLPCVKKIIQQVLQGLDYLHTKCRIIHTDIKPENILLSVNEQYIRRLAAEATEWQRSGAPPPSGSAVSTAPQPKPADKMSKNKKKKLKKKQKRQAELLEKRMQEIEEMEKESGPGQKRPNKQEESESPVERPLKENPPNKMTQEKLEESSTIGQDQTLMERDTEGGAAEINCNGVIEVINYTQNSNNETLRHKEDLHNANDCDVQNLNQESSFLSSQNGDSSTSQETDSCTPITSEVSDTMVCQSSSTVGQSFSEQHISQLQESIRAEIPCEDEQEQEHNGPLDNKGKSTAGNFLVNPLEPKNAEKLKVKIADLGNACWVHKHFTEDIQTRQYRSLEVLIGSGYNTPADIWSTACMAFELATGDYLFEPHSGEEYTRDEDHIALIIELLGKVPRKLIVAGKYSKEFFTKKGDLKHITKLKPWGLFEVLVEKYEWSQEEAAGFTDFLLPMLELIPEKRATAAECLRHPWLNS
Serine/threonine-protein kinase MRCK beta (Homo sapiens), sequence (Q9Y5S2 whole entry): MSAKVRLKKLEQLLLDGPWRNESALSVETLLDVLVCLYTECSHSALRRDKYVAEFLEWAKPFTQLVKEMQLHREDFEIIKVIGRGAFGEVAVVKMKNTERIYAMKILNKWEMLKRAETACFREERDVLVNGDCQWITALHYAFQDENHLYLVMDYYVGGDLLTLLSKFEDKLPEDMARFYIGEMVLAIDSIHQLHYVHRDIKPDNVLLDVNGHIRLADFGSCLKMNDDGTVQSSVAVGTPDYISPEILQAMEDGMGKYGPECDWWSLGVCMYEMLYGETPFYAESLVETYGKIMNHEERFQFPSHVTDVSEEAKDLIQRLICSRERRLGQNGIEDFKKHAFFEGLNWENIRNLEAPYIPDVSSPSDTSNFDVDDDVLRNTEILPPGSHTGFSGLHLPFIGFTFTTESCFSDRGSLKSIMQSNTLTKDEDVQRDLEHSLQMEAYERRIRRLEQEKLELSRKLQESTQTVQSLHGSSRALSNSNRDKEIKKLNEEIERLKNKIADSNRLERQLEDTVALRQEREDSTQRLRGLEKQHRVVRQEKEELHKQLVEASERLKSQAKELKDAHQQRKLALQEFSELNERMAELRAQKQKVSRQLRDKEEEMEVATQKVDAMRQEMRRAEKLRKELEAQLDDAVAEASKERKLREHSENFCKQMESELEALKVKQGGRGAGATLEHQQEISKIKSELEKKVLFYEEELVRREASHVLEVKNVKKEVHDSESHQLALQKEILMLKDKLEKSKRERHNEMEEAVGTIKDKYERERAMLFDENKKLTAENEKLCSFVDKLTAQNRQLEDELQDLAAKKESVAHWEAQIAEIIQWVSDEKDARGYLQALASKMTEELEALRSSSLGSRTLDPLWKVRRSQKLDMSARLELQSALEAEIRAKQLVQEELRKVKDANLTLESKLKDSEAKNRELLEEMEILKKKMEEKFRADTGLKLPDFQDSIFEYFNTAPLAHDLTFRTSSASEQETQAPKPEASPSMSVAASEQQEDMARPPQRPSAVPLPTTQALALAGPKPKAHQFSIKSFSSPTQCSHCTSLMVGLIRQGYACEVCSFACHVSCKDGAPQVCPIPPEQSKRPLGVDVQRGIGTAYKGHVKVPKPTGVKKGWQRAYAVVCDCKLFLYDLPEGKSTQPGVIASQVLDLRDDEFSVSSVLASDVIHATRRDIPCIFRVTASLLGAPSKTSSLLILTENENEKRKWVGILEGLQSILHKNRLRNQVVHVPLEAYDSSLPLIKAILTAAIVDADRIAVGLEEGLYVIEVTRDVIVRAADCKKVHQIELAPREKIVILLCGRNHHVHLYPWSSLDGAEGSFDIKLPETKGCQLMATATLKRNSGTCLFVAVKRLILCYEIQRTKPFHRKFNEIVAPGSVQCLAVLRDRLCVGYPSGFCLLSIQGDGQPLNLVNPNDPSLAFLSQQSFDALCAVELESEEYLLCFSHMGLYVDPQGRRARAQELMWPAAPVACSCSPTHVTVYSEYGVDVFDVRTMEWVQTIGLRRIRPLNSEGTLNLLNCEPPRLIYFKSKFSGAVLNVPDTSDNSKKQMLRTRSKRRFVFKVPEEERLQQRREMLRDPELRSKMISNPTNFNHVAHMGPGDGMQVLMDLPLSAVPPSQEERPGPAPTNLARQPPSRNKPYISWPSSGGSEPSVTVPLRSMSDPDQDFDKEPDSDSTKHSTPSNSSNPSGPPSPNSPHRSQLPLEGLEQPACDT
Dual specificity mitogen-activated protein kinase kinase 1 (Homo sapiens), sequence (Q02750 whole entry): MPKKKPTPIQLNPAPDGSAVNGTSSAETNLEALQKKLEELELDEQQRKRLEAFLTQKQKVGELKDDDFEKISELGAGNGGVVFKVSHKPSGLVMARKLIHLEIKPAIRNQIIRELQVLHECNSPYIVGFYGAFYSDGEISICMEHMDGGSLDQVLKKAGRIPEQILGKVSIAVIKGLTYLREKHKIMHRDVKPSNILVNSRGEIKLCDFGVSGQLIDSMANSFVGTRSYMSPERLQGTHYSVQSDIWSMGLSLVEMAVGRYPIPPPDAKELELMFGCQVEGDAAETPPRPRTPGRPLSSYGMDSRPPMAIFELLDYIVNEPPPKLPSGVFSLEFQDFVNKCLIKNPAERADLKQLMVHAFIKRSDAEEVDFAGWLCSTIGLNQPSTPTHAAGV
Serine/threonine-protein kinase 10 (Homo sapiens), sequence (O94804 whole entry, looked up): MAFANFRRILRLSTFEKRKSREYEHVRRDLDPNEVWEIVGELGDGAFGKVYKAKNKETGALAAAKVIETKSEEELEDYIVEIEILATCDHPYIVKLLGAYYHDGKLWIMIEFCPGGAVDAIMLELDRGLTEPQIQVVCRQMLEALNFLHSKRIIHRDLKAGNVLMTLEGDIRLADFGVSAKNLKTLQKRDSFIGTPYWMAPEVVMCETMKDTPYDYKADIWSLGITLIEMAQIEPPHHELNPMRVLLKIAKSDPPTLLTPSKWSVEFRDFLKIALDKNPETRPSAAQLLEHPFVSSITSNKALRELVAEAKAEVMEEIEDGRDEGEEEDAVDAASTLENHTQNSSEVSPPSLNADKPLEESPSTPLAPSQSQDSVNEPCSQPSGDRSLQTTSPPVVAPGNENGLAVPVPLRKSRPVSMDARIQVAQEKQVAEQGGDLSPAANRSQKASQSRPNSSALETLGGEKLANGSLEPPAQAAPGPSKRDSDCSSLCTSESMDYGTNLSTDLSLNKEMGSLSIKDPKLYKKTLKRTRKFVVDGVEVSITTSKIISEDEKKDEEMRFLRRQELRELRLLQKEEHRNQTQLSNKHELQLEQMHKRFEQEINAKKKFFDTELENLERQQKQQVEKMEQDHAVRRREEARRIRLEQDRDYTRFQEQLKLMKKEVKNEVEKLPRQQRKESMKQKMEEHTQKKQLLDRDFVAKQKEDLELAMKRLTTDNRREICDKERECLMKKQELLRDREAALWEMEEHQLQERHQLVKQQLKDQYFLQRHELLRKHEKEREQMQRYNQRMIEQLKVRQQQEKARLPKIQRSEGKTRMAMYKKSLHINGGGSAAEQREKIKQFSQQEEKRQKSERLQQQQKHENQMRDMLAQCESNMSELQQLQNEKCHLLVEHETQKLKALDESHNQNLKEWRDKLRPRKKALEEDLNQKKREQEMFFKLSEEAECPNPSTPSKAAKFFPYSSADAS

inhibition [2] [%]	inhibition [3] [%]	inhibition [4] [%]	inhibition [5] [%]	inhibition [6] [%]	inhibition [7] [%]	inhibition [8] [%]	inhibition [9] [%]	inhibition [10] [%]	Compound	inhibition (PC-3) [%]	inhibition [1] [%]
< 35	< 35	< 35	< 35	< 35	< 35	< 35	< 35	< 35	CCC[C@@H](NC(=O)c1ccc2nc(N[C@H]3CC[C@H](O)CC3)c3nccn3c2c1)c1ccccc1	< 35	< 35
< 35	< 35	< 35	96	< 35	< 35	< 35	39.1	< 35	NC(=O)c1ccc2nc(N[C@H]3CC[C@H](O)CC3)c3nccn3c2c1	< 35	< 35
< 35	< 35	< 35	< 35	< 35	< 35	< 35	< 35	< 35	O=C(NC1(c2ccccc2)CC1)c1ccc2nc(N[C@H]3CC[C@H](O)CC3)c3nccn3c2c1	< 35	< 35
< 35	< 35	< 35	98.6	< 35	< 35	< 35	48.9	< 35	O=C(O)c1ccc2nc(N[C@H]3CC[C@H](O)CC3)c3nccn3c2c1	< 35	< 35
< 35	< 35	< 35	< 35	< 35	< 35	< 35	< 35	< 35	O=C(NC1(c2ccccc2)CCC1)c1ccc2nc(N[C@H]3CC[C@H](O)CC3)c3nccn3c2c1	< 35	< 35
< 35	< 35	< 35	< 35	< 35	< 35	< 35	< 35	< 35	C[C@H](NC(=O)c1ccc2nc(N[C@H]3CC[C@H](O)CC3)c3nccn3c2c1)c1ccccc1	< 35	< 35
< 35	< 35	< 35	< 35	< 35	< 35	< 35	< 35	< 35	O=C(NC1(c2ccc(F)cc2)CC1)c1ccc2nc(N[C@H]3CC[C@H](O)CC3)c3nccn3c2c1	< 35	< 35
< 35	< 35	< 35	< 35	< 35	< 35	< 35	< 35	< 35	CC[C@@H](NC(=O)c1ccc2nc(N[C@H]3CC[C@H](O)CC3)c3nccn3c2c1)c1ccccc1	< 35	< 35
< 35	< 35	< 35	< 35	< 35	< 35	< 35	< 35	< 35	CC(C)(NC(=O)c1ccc2nc(N[C@H]3CC[C@H](O)CC3)c3nccn3c2c1)c1ccccc1	< 35	< 35
< 35	< 35	< 35	< 35	< 35	38.7	< 35	< 35	< 35	C[C@@H](NC(=O)c1ccc2nc(N[C@H]3CC[C@H](O)CC3)c3nccn3c2c1)c1ccccc1	< 35	< 35
< 35	< 35	< 35	< 35	< 35	< 35	< 35	< 35	< 35	O=C(N[C@H](CO)c1ccccc1)c1ccc2nc(N[C@H]3CC[C@H](O)CC3)c3nccn3c2c1	< 35	< 35
< 35	< 35	< 35	< 35	< 35	< 35	< 35	< 35	< 35	O=C(NC1(Cc2ccc(F)cc2)CC1)c1ccc2nc(N[C@H]3CC[C@H](O)CC3)c3nccn3c2c1	< 35	< 35
